The EC50 is the concentration that produces a half-maximal response. Read a low EC50 as greater potency. What is called half-life is the time in which the quantity being followed falls by half. The amount remaining is what is left of the initial amount, in per cent.

Ends that are not written are not given here.

The test system of one data set is BRIN-BD11 cells. In words: Insulin secretion from BRIN-BD11 cells. In kind it is cell-based. To be noted: for Maximal insulin response (% GIP max) / Insulin response in presence of 10^-7 M GIP (% GIP max): 5.6 mm glucose; for Maximal insulin response (% GIP max): 20 min; for Insulin response in presence of 10^-7 M GIP (% GIP max): in presence of 10^-7 M native GIP; for effect on GIP-stimulated insulin secretion: in presence of GIP (10^-7 m). The procedure:
(§1) Tissue Culture. Chinese Hamster Lung (CHL) fibroblast cells stably transfected with the human GIP-R were cultured in DMEM tissue culture medium containing 10%. (v/v) fetal bovine serum, 1% (v/v) antibiotics (100 U/ml penicillin, 0.1 mg/ml streptomycin) (all from Gibco, Paisley, Strathclyde, Scotland). BRIN-BD11 cells were cultured in RPMI-1640 tissue culture medium containing 10% (v/v) fetal bovine serum, 1% (v/v) antibiotics (100 U/ml penicillin, 0.1 mg/ml streptomycin) and 11.1 mm glucose. The origin and secretory characteristics of these cells have been described in detail previously (McClenaghan, N. H. et al., 1996, Diabetes 45:1132-1140). The cells were maintained in sterile tissue culture flasks (Corning Glass Works, Sunderland, UK) at 37° C. in an atmosphere of 5% CO2 and 95% air using a LEEC incubator (Laboratory Technical Engineering, Nottingham, UK).
Methods. Insulin release from BRIN-BD11 cells was determined by use of cell monolayers as described previously (Gault, V. A. et al. 2002, Biochem. J. 367:913-920). In brief, BRIN-BD11 cells were seeded into 24-well plates (Nunc, Roskilde, Denmark) at a density of 1.5×10^5 cells per well and allowed to attach overnight in RPMI-1640 culture medium at 37° C. Acute tests for insulin secretion were preceded by 40 minutes pre-incubation at 37° C. in 1.0 ml Krebs Ringer Bicarbonate Buffer (KRBB, 115 mm NaCl, 4.7 mm KCl, 1.28 mm CaCl2, 1.2 mM MgSO4, 1.2 mm KH2PO4, 25 mM HEPES and 10 mm NaHCO3; pH 7.4 with NaOH) supplemented with 0.1% (w/v) BSA and 1.1 mM glucose. […] After 20 minutes incubation, the buffer was removed and used for measurement of insulin by radioimmunoassay (Flatt, P. R. and Bailey, C. J., 1981, Diabetologia 5:573-577).

The next data set deals with T1, human GIP-R (Homo sapiens, UniProt P48546).
T1 construct: expressed in transfected cells; host or cells: Chinese Hamster Lung (CHL) fibroblast cells, stably transfected
T1 sequence (P48546 22-466): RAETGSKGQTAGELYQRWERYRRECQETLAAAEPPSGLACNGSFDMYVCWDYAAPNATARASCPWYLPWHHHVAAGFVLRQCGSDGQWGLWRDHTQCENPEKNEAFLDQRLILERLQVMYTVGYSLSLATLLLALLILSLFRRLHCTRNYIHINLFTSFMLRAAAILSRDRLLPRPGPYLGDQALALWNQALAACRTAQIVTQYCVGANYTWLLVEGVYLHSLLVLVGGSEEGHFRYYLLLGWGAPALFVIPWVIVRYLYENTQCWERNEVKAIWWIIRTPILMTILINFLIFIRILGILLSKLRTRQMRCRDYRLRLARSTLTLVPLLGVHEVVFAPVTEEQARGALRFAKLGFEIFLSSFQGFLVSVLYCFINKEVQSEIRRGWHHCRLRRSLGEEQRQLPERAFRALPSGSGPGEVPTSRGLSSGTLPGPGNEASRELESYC
The experiment in a line: Cyclic AMP production in GIP-R transfected CHL cells. Format: cell-based. Particulars: for remaining activity at 0.1 µM: CHL, read-out: cAMP response in presence of 10^-7 M GIP (% GIP max); for inhibition of GIP-stimulated cAMP production: in presence of GIP (10^-7 m). The procedure: as §1, with “Chinese Hamster Lung (CHL) fibroblast cells stably transfected with the human GIP-R were cultured in DMEM tissue culture medium containing 10%.” left out
Methods. […] The culture medium was removed and cells subsequently washed twice with 2 ml ice-cold HBS buffer (130 mm NaCl, 20 mm HEPES, 0.9 mm NaHPO4, 0.8 mm MgSO4, 5.4 mm KCl, 1.8 mm CaCl2, 5.6 mm glucose and 25 μm phenol red) (pH 7.4). […] The medium was subsequently removed and the cells lysed with […] of lysing solution (5% TCA, 3% SDS, 92% H2O, also containing 0.1 mm unlabelled cAMP and 0.1 mm unlabelled ATP) (Sigma, Poole, Dorset, UK). The plates were then left on a shaker at room temperature for 30 minutes and tritiated cAMP formation determined by column chromatography using Dowex and alumina ion exchange columns (BioRad Life Science Research, Alpha Analytical, Larne, UK) as previously described (Gault, V. A. et al 2002, Biochem. J. 367:913-920).

Another data set concerns ob/ob mice. The experiment in a line: Acute antihyperglycaemic and insulin releasing activity with glucose and native GIP in ob/ob mice. Particulars: for plasma glucose and insulin profiles when administered together with native GIP: 25 nmol/kg i.p. with GIP and glucose 18 mmol/kg, vs native GIP. Format: in vivo, mouse. As to the method:
Animals. Obese diabetic (ob/ob) mice derived from the colony maintained at Aston University, UK (Bailey C. J. et al., 1982, Int. J. Obes. 6:11-21) were used at 14-18 weeks of age. Animals were age-matched, divided into groups and housed individually in an air-conditioned room at 22±2° C. with a 12 hour light: 12 hour dark cycle (08:00-20:00 hr). Drinking water and a standard rodent maintenance diet (Trouw Nutrition, Cheshire, UK) were freely available. All animal experiments were carried out in accordance with the UK Animals (Scientific Procedures) Act 1986.
Biochemical analysis. Plasma glucose was assayed by an automated glucose oxidase procedure ([…]) using a Beckman Glucose Analyzer II (Beckman Instruments, Galway, Ireland). Plasma insulin was assayed by radioimmunoassay.
Methods. […] All test solutions were administered in a final volume of 5 ml/kg body weight. Blood samples were collected from the cut tip of the tail vein of conscious mice into chilled fluoride/heparin coated glucose microcentrifuge tubes (Sarstedt, Numbrecht, Germany) immediately prior to injection and at 15, 30 and 60 minutes post injection. Blood samples were immediately centrifuged using a Beckmnan microcentrifuge (Beckman Instruments, High Wycombe, Buckinghamshire, UK) for 30 seconds at 13,000×g. Plasma glucose was assayed using a Beckman Glucose Analyzer n (Beckman Instruments, High Wycombe, Buckinghamshire, UK) (Stevens, J. F., 1971, Clin. Chim. Acta 32:199-201) and plasma insulin was determined by RIA (Flatt, P. R. and Bailey, C. J., 1981, Diabetologia 5:573-577). All animal studies were carried out in accordance with the UK Animals (Scientific Procedures) Act 1986.

The next data set concerns the target DPP-IV (Homo sapiens, UniProt P27487). In words: Degradation of GIP and Glu3-substituted GIP analogs by DPP-IV (HPLC). Format: in vitro ADME. Particulars: for half-life at 2 μm: DPP-IV enzyme (5 mU) in buffer, pH 7.8, incubation with DPP-IV, unit not given (time points in hrs), read-out: Estimated Half-Life (converted); for Intact Peptide Remaining (%) 0 hrs. / remaining at 2 h, 2 μm / remaining at 4 h, 2 μm / remaining at 8 h, 2 μm: incubation with DPP-IV (5 mU), 37°C; for Intact Peptide Remaining (%) 0 hrs.: pH 7.8, 0 hrs; for remaining at 2 h, 2 μm / remaining at 4 h, 2 μm / remaining at 8 h, 2 μm: isolated DPP-IV enzyme (5 mU); for remaining at 2 h, 2 μm: pH 7.8, 2 hrs, read-out: Intact Peptide Remaining (%) 2 hrs.; for remaining at 4 h, 2 μm: pH 7.8, 4 hrs, read-out: Intact Peptide Remaining (%) 4 hrs.; for remaining at 8 h, 2 μm: pH 7.8, 8 hrs, read-out: Intact Peptide Remaining (%) 8 hrs.; for resistance to DPP-IV degradation: words, up to 8 hours incubation.

Chain of DPP-IV (P27487 whole entry, species assumed): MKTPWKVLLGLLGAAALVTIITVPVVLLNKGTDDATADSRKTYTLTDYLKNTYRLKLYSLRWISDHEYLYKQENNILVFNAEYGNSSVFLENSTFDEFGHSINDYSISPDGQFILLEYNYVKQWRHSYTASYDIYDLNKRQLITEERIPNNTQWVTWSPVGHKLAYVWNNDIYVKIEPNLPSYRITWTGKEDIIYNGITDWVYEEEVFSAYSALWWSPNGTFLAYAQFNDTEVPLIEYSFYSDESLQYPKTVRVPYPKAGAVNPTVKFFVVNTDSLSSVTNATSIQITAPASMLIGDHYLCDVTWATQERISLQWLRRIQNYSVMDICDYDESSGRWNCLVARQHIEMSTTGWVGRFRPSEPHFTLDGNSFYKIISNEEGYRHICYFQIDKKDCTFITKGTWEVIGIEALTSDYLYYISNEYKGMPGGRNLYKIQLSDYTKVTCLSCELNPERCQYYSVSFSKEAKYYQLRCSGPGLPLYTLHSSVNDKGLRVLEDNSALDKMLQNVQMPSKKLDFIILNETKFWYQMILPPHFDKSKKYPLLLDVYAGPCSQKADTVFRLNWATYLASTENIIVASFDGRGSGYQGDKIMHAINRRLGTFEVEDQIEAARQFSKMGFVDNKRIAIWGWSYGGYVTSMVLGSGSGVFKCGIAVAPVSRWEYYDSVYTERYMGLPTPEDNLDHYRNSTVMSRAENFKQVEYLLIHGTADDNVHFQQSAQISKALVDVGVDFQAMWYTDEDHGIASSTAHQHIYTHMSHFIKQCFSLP

Consider “YAFGTFISDYSIAMDKIHQQDFVNWLLAQKGKKNDWKHNITQ [(Phe^3)GIP]”, for which, in the data set on BRIN-BD11 cells (BRIN-BD11 cells), the “Maximal insulin response (% GIP max)” value came out at 75 ± 3 % GIP max and the “Insulin response in presence of 10^-7 M GIP (% GIP max)” value amounted to 73 ± 3 % GIP max. The “effect on GIP-stimulated insulin secretion” value (“effect” for short) in the data set with BRIN-BD11 cells is “significantly inhibited”. In addition, on human GIP-R, the EC50 stood at 1 nM, the remaining activity at 0.1 µM turned out to be 62 ± 3% and the “inhibition of GIP-stimulated cAMP production” value (shortened to “inhibition”) is reported as “significantly inhibited”. The “plasma glucose and insulin profiles when administered together with native GIP” value (“plasma glucose and insulin profiles” below) with ob/ob mice is given as “significantly inhibited the action of GIP”. For the same molecule, at DPP-IV, the half-life at 2 μm is 1.2 h; the “Intact Peptide Remaining (%) 0 hrs.” value was 100%; the amount remaining at 2 h, 2 μm came to 15 ± 5.2%; the fraction remaining at 4 h, 2 μm came to 2.5 ± 0.1%. The share remaining at 8 h, 2 μm at DPP-IV was found to be 0%.

In the case of “YAAGTFISDYSIAMDKIHQQDFVNWLLAQKGKKNDWKHNITQ [(Ala^3)GIP]”, in the data set with BRIN-BD11 cells (BRIN-BD11 cells), the “Maximal insulin response (% GIP max)” value was found to be 111 ± 6 % GIP max and the “Insulin response in presence of 10^-7 M GIP (% GIP max)” value was found to be 115 ± 3 % GIP max. Moreover, the “stimulation of insulin secretion compared with control incubations” value with BRIN-BD11 cells (BRIN-BD11 cells, vs 5.6 mm glucose alone) is 1.7 fold. For the same molecule, the “effect” value with BRIN-BD11 cells is listed as “did not significantly affect”. For the same molecule, on human GIP-R, the EC50 was 2.3 nM, the remaining activity at 0.1 µM is 88 ± 3% and the “inhibition” value is on record as “did not significantly inhibit”. Moreover, the “plasma glucose and insulin profiles” value with ob/ob mice was “significantly inhibited the action of GIP”. In addition, on DPP-IV, the half-life at 2 μm was 1.1 h; the “Intact Peptide Remaining (%) 0 hrs.” value was 100%; the amount remaining at 2 h, 2 μm is 5.9 ± 1.7%; the amount remaining at 4 h, 2 μm stood at 2.7 ± 0.1%. Moreover, at DPP-IV, the share remaining at 8 h, 2 μm is 0% and the “resistance to DPP-IV degradation” value is given as “least resistant”.

Regarding “YAWGTFISDYSIAMDKIHQQDFVNWLLAQKGKKNDWKHNITQ [(Trp^3)GIP]”, in the data set on BRIN-BD11 cells (BRIN-BD11 cells), the “Maximal insulin response (% GIP max)” value was 73 ± 2 % GIP max and the “Insulin response in presence of 10^-7 M GIP (% GIP max)” value is recorded as 100 ± 5 % GIP max. Moreover, the “effect” value with BRIN-BD11 cells is recorded as “did not significantly affect”. Moreover, on human GIP-R, the response was half-maximal at 3 nM (EC50), the remaining activity at 0.1 µM came to 78 ± 2% and the “inhibition” value is listed as “did not significantly inhibit”. For the same molecule, the “plasma glucose and insulin profiles” value in the data set with ob/ob mice was “did not significantly alter”. On DPP-IV, the half-life at 2 μm was 1.3 h; the “Intact Peptide Remaining (%) 0 hrs.” value is on record as 100%; the amount remaining at 2 h, 2 μm was found to be 22.5 ± 1.7%; the share remaining at 4 h, 2 μm amounted to 4.7 ± 2.4%. Moreover, the amount remaining at 8 h, 2 μm on DPP-IV was determined as 0%.

Regarding `CC[C@H](C)[C@H](NC(=O)[C@H](CO)NC(=O)[C@H](Cc1ccc(O)cc1)NC(=O)[C@H](CC(=O)O)NC(=O)[C@H](CO)NC(=O)[C@@H](NC(=O)[C@H](Cc1ccccc1)NC(=O)[C@@H](NC(=O)CNC(=O)[C@H](CCC(=O)O)NC(=O)[C@H](C)NC(=O)[C@@H](N)Cc1ccc(O)cc1)[C@@H](C)O)[C@@H](C)CC)C(=O)N[C@@H](C)C(=O)N[C@@H](CCSC)C(=O)N[C@@H](CC(=O)O)C(=O)N[C@@H](CCCCN)C(=O)N[C@H](C(=O)N[C@@H](Cc1c[nH]cn1)C(=O)N[C@@H](CCC(N)=O)C(=O)N[C@@H](CCC(N)=O)C(=O)N[C@@H](CC(=O)O)C(=O)N[C@@H](Cc1ccccc1)C(=O)N[C@H](C(=O)N[C@@H](CC(N)=O)C(=O)N[C@@H](Cc1c[nH]c2ccccc12)C(=O)N[C@@H](CC(C)C)C(=O)N[C@@H](CC(C)C)C(=O)N[C@@H](C)C(=O)N[C@@H](CCC(N)=O)C(=O)N[C@@H](CCCCN)C(=O)NCC(=O)N[C@@H](CCCCN)C(=O)N[C@@H](CCCCN)C(=O)N[C@@H](CC(N)=O)C(=O)N[C@@H](CC(=O)O)C(=O)N[C@@H](Cc1c[nH]c2ccccc12)C(=O)N[C@@H](CCCCN)C(=O)N[C@@H](Cc1c[nH]cn1)C(=O)N[C@@H](CC(N)=O)C(=O)N[C@H](C(=O)N[C@H](C(=O)N[C@@H](CCC(N)=O)C(=O)O)[C@@H](C)O)[C@@H](C)CC)C(C)C)[C@@H](C)CC` [GIP, reference compound], in the data set with BRIN-BD11 cells (BRIN-BD11 cells), the “Maximal insulin response (% GIP max)” value was determined as 100 % GIP max and the “Insulin response in presence of 10^-7 M GIP (% GIP max)” value turned out to be 100 % GIP max. For the same molecule, the “glycaemic excursion and insulin response” value in the data set with ob/ob mice (compared with i.p. glucose alone) is “decreased the glycaemic excursion and enhanced insulin response”. Besides, on DPP-IV, the half-life at 2 μm was 1.3 h; the “Intact Peptide Remaining (%) 0 hrs.” value is listed as 100%; the amount remaining at 2 h, 2 μm is 20.9 ± 1.6%; the fraction remaining at 4 h, 2 μm stood at 4.9 ± 1.2%. In addition, at DPP-IV, the fraction remaining at 8 h, 2 μm turned out to be 0% and the “resistance to DPP-IV degradation” value is “complete degradation by 8 hours”.

The values above are taken from US20090170762A1, “Treatment of Diabetes Related Obesity” (UUTech Limited, priority 2005, published 2009).
